The target in this assay is T1, human B-Raf (Homo sapiens, UniProt P15056).
T1 construct: Flag; GST; made in house; host or cells: Sf9 insect cells (B-Raf); E. coli (MEK1-GST)
Kind of assay: B-Raf Kinase to MEK1 ELISA. It is filed as biochemical. As to conditions: for inhibition at 10 µM: read-out: % Inhib./10 uM. In short, it runs like this: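 Read-out is a DELFIA europium signal from phospho-MEK1 (Ser217/221) antibody after capture of GST-MEK1 (50 nM final) on anti-GST plates. Phosphorylation comes from Sf9-expressed Flag/GST human B-Raf (~20 ng) with ATP/MgCl2, 60 min RT, pH 7.2 MOPS.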

Setting [1] is: median, cpd concentrations from 10 μM to 30 nM in half log dilutions, read-out: Median IC50.

Where two headings read alike, the source gives them in different places.

T1 sequence (P15056 whole entry): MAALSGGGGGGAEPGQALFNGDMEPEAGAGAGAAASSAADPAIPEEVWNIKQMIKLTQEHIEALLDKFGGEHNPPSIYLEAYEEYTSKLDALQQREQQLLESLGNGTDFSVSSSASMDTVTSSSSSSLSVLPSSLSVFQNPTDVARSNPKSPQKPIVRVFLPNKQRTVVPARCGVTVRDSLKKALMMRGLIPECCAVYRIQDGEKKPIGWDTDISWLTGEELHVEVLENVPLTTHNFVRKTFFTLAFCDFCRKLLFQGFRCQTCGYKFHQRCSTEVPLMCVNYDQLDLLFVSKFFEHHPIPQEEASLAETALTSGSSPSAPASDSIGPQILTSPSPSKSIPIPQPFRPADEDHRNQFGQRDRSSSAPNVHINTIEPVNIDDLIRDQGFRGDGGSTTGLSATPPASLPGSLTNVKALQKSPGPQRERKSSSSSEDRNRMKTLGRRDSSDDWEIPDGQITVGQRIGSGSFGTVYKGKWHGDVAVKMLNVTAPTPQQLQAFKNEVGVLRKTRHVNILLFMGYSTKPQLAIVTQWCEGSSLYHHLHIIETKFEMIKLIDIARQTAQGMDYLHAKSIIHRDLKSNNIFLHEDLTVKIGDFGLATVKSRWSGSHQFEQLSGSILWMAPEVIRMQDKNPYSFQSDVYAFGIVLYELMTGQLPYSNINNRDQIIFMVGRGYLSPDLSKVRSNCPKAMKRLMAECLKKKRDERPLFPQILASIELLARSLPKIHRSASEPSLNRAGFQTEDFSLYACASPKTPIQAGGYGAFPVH

For orientation: IC50 means the point on the concentration scale where inhibition reaches its midpoint. In the case of `O=C(Nc1cccc(-c2ccnc3c(C(=O)NCCCN4CCOCC4)cnn23)c1)c1cccc(C(F)(F)F)c1` [Example 53, N-(3-morpholin-4-ylpropyl)-7-(3-{[3-(trifluoromethyl)benzoyl]amino}phenyl)pyrazolo[1,5-a]pyrimidine-3-carboxamide], the inhibition at 10 µM was 55%. Under setting [1], the half-inhibitory concentration (IC50) is 5 µM.
Take `Cc1ccc(C(=O)Nc2cccc(-c3ccnc4c(-c5cccc(C(=O)N(C)C)c5)cnn34)c2)cc1C(F)(F)F` [Example 183, N-[3-(3-{3-[(dimethylamino)carbonyl]phenyl}pyrazolo[1,5-a]pyrimidin-7-yl)phenyl]-4-methyl-3-(trifluoromethyl)benzamide]: half-maximal inhibition (IC50) required 0.27 µM and the inhibition at 10 µM amounted to 84%.
Take `CCOC(=O)c1cnn2c(-c3cccc(NC(=O)Cc4cccc(C(F)(F)F)c4)c3)ccnc12` [Example 97, ethyl 7-[3-({[3-(trifluoromethyl)phenyl]acetyl}amino)phenyl]pyrazolo[1,5-a]pyrimidine-3-carboxylate]: the inhibition at 10 µM came out at 49%. Besides, the half-maximal inhibitory concentration (IC50) under setting [1] is 8.6 µM.
For `CCOC(=O)c1cnn2c(-c3cccc(NC(=O)Nc4ccc(F)c(C(F)(F)F)c4)c3)ccnc12` [Example 44, ethyl 7-{3-[({[4-fluoro-3-(trifluoromethyl)phenyl]amino}carbonyl)amino]phenyl}pyrazolo[1,5-a]pyrimidine-3-carboxylate] the same measures were 90% and 0.27 µM.
As to `O=C(Nc1cccc(-c2ccnc3c(C(=O)Oc4cccnc4)cnn23)c1)c1cccc(C(F)(F)F)c1` [Example 126, pyridin-3-yl 7-(3-{[3-(trifluoromethyl)benzoyl]amino}phenyl)pyrazolo[1,5-a]pyrimidine-3-carboxylate], the inhibition at 10 µM came out at 17%. Besides, the IC50 under setting [1] was over 10 µM.
Regarding `O=C(Nc1cccc(-c2ccnc3c(-c4cccc(CO)c4)cnn23)c1)c1cccc(C(F)(F)F)c1` [Example 286, N-(3-{3-[3-(hydroxymethyl)phenyl]pyrazolo[1,5-a]pyrimidin-7-yl}phenyl)-3-(trifluoromethyl)benzamide], the concentration for half-maximal inhibition (IC50) was 0.145 µM and the inhibition at 10 µM was 77%.
Consider `N#Cc1cccc(-c2cnn3c(-c4cccc(NC(=O)c5cccc(C(F)(F)F)c5)c4)ccnc23)c1` [Example 294, N-{3-[3-(3-cyanophenyl)pyrazolo[1,5-a]pyrimidin-7-yl]phenyl}-3-(trifluoromethyl)benzamide], for which the inhibition at 10 µM amounted to 42%. For the same molecule, under setting [1], the IC50 is over 10 µM.
Taken in the same sequence, the figures for `CCOC(=O)c1cnn2c(-c3cccc(NC(=O)c4ccc(F)c(C(F)(F)F)c4)c3)ccnc12` [Example 2, ethyl 7-(3-{[4-fluoro-3-(trifluoromethyl)benzoyl]amino}phenyl)pyrazolo[1,5-a]pyrimidine-3-carboxylate] were 84% and 17 µM.
Taken in the same sequence, the figures for `CN(C)CCc1cccc(-c2cnn3c(-c4cccc(NC(=O)c5cccc(C(F)(F)F)c5)c4)ccnc23)c1` [Example 281, N-[3-(3-{3-[2-(dimethylamino)ethyl]phenyl}pyrazolo[1,5-a]pyrimidin-7-yl)phenyl]-3-(trifluoromethyl)benzamide] were 98% and 0.0407 µM.
Taken in the same sequence, the figures for `CCOC(=O)c1cnn2c(-c3cccc(NC(=O)Cc4cccc(F)c4)c3)ccnc12` [Example 93, ethyl 7-(3-{[(3-fluorophenyl)acetyl]amino}phenyl)pyrazolo[1,5-a]pyrimidine-3-carboxylate] were 0% and over 10 µM.
As for `COCCC(=O)Nc1ccc(-c2cnn3c(-c4cccc(NC(=O)c5cccc(C(F)(F)F)c5)c4)ccnc23)cc1` [Example 231, N-[3-(3-{4-[(3-methoxypropanoyl)amino]phenyl}pyrazolo[1,5-a]pyrimidin-7-yl)phenyl]-3-(trifluoromethyl)benzamide], the inhibition at 10 µM amounted to 80%. Moreover, under setting [1], the half-inhibitory concentration (IC50) came out at 0.246 µM.
Taken in the same sequence, the figures for `CCOC(=O)c1cnn2c(-c3ccc(OCc4ccccc4)c(NC(=O)c4cccc(C(F)(F)F)c4)c3)ccnc12` [Example 90, ethyl 7-(4-(benzyloxy)-3-{[3-(trifluoromethyl)benzoyl]amino}phenyl)pyrazolo[1,5-a]pyrimidine-3-carboxylate] were 4% and over 10 µM.
Turning to `N#Cc1c(N2CCNCC2)nn2c(-c3cccc(NC(=O)c4cccc(C(F)(F)F)c4)c3)ccnc12` [Example 62, N-[3-(3-cyano-2-piperazin-1-ylpyrazolo[1,5-a]pyrimidin-7-yl)phenyl]-3-(trifluoromethyl)benzamide], the inhibition at 10 µM came out at 54%.
As for `CCOC(=O)c1cnn2c(-c3cccc(NC(=O)c4ccc(C)s4)c3)ccnc12` [Example 221, ethyl7-(3-{[(5-methyl-2-thienyl)carbonyl]amino}phenyl)pyrazolo[1,5-a]pyrimidine-3-carboxylate], the inhibition at 10 µM turned out to be 65%. The IC50 under setting [1] is 9.7 µM.
For the molecule `O=C(Nc1ccc(F)c(-c2ccnc3cc(-c4ccncc4)nn23)c1)c1cccc(C(F)(F)F)c1` [Example 317, N-[4-fluoro-3-(2-pyridin-4-ylpyrazolo[1,5-a]pyrimidin-7-yl)phenyl]-3-(trifluoromethyl)benzamide], the inhibition at 10 µM was found to be 100%. Under setting [1], the 50% inhibitory concentration (IC50) came out at 0.0423 µM.
Taken in the same sequence, the figures for `CN(C)CCCNc1cc(-c2cc3nccc(-c4cccc(NC(=O)c5cccc(C(F)(F)F)c5)c4)n3n2)ccn1` [Example 257, N-{3-[2-(2-{[3-(dimethylamino)propyl]amino}pyridin-4-yl)pyrazolo[1,5-a]pyrimidin-7-yl]phenyl}-3-(trifluoromethyl)benzamide] were 97% and 0.0745 µM.
Regarding `CCOC(=O)c1cnn2c(-c3cccc(NC(=O)c4ccc(Cl)c(Cl)c4)c3)ccnc12` [Example 71, ethyl 7-{3-[(3,4-dichlorobenzoyl)amino]phenyl}pyrazolo[1,5-a]pyrimidine-3-carboxylate], the inhibition at 10 µM is 0%. Under setting [1], the IC50 was over 10 µM.
On to `O=C(Nc1cccc(-c2ccnc3cc(N4CCN(Cc5ccccc5)CC4)nn23)c1)c1cccc(C(F)(F)F)c1` [Example 207, N-{3-[2-(4-benzylpiperazin-1-yl)pyrazolo[1,5-a]pyrimidin-7-yl]phenyl}-3-(trifluoromethyl)benzamide], for which the inhibition at 10 µM was 0%. Further, under setting [1], the 50% inhibitory concentration (IC50) is over 10 µM.
For `CC(=O)NCC(=O)Nc1cccc(-c2cnn3c(-c4cccc(NC(=O)c5cccc(C(F)(F)F)c5)c4)ccnc23)c1` [Example 255, N-[3-(3-{3-[(N-acetylglycyl)amino]phenyl}pyrazolo[1,5-a]pyrimidin-7-yl)phenyl]-3-(trifluoromethyl)benzamide] the same measures were 91% and 0.049 µM.
Taken in the same sequence, the figures for `CCOCOCc1ccc(-c2cc3nccc(-c4cccc(NC(=O)c5cccc(C(F)(F)F)c5)c4)n3n2)cc1` [Example 140, N-[3-(2-{4-[(ethoxymethoxy)methyl]phenyl}pyrazolo[1,5-a]pyrimidin-7-yl)phenyl]-3-(trifluoromethyl)benzamide] were 39% and over 10 µM.
Consider `CCOC(=O)c1c(C)nn2c(-c3cccc(NC(=O)c4ccc(C)c(C(F)(F)F)c4)c3)ccnc12` [Example 64, ethyl 2-methyl-7-(3-{[4-methyl-3-(trifluoromethyl)benzoyl]amino}phenyl)pyrazolo[1,5-a]pyrimidine-3-carboxylate], for which the inhibition at 10 µM is 4%. The half-inhibitory concentration (IC50) under setting [1] is over 10 µM.
For `CCOC(=O)c1cnn2c(-c3cccc(NC(=O)c4cnc(C)cn4)c3)ccnc12` [Example 216, Ethyl7-(3-{[(5-methylpyrazin-2-yl)carbonyl]amino}phenyl)pyrazolo[1,5-a]pyrimidine-3-carboxylate] the same measures were 3% and over 10 µM.
Regarding `O=C(Nc1cccc(-c2ccnc3c(-c4ccncc4)cnn23)c1)Nc1cccc(C(F)(F)F)c1` [Example 192, N-[3-(3-pyridin-4-ylpyrazolo[1,5-a]pyrimidin-7-yl)phenyl]-N′-[3-(trifluoromethyl)phenyl]urea], the inhibition at 10 µM is 72%. In addition, the half-inhibitory concentration (IC50) under setting [1] came out at 1.3 µM.
For `CCOC(=O)c1cnn2c(-c3cccc(NC(=O)c4cnccn4)c3)ccnc12` [Example 214, ethyl7-{3-[(pyrazin-2-ylcarbonyl)amino]phenyl}pyrazolo[1,5-a]pyrimidine-3-carboxylate] the same measures were 8% and over 10 µM.
Turning to `O=C(Nc1cccc(-c2ccnc3c(Br)cnn23)c1)Nc1ccc(F)c(C(F)(F)F)c1` [Example 167, N-[3-(3-bromopyrazolo[1,5-a]pyrimidin-7-yl)phenyl]-N′-[4-fluoro-3-(trifluoromethyl)phenyl]urea], the inhibition at 10 µM turned out to be 59%. For the same molecule, the concentration for half-maximal inhibition (IC50) under setting [1] was 4.99 µM.
`CC(=O)Nc1ccc(-c2cnn3c(-c4cccc(NC(=O)c5ccc(C)c(C(F)(F)F)c5)c4)ccnc23)cc1` [Example 184, N-(3-{3-[4-(acetylamino)phenyl]pyrazolo[1,5-a]pyrimidin-7-yl}phenyl)-4-methyl-3-(trifluoromethyl)benzamide]: 0.2 µM corresponded to half-maximal inhibition (IC50) and the inhibition at 10 µM came to 89%.
As to `O=C(Nc1cccc(-c2ccnc3cc(-c4ccco4)nn23)c1)c1cccc(C(F)(F)F)c1` [Example 113, N-{3-[2-(2-furyl)pyrazolo[1,5-a]pyrimidin-7-yl]phenyl}-3-(trifluoromethyl)benzamide], the inhibition at 10 µM worked out at 45%. Under setting [1], the IC50 is over 10 µM.
On to `CCOC(=O)c1cnn2c(-c3cccc(NC(=O)c4cc(C(F)(F)F)cc(Cl)c4F)c3)ccnc12` [Example 28, ethyl 7-(3-{[3-chloro-2-fluoro-5-(trifluoromethyl)benzoyl]amino}phenyl)pyrazolo[1,5-a]pyrimidine-3-carboxylate], for which the inhibition at 10 µM is 19%. Further, the IC50 under setting [1] is over 10 µM.
